Data: the supplement of paper PMC11061612

Columns and labels:
[1] = compound: C1CN(CCC1(C(=O)N[C@@H](CCO)C2=CC=C(C=C2)Cl)N)C3=NC=NC4=C3C=CN4 [Capivasertib]
Outline: (§1)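 Cancer cell lines were dosed for 72 hours (final DMSO typically 0.2%) after 24 hours at 37°C and 5% CO2 in 1536-well plates containing 7.5 μl DMEM/F12 or RPMI with 10% FBS. Viability came from CellTiter-Glo 2.0 luminescence, scaled between blank-well and DMSO-well means, and dose responses were fitted to a two-parameter logistic curve with a non-linear mixed effects model. The single-agent IC50 was obtained from this fit.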

[2] = compound: C=CCn1c(=O)c2cnc(Nc3ccc(N4CCN(C)CC4)cc3)nc2n1-c1cccc(C(C)(C)O)n1 [AZD1775]; settings: max 3 µM
Outline: as §1

[3] = compound: CC(=O)Nc1cccc(-n2c(=O)n(C3CC3)c(=O)c3c(Nc4ccc(I)cc4F)n(C)c(=O)c(C)c32)c1 [Trametinib]; settings: max 1 µM
Outline: as §1

[4] = compound: CC(=O)c1c(C)c2cnc(Nc3ccc(N4CCNCC4)cn3)nc2n(C2CCCC2)c1=O [Palbociclib]; settings: max 10 µM
Outline: as §1

[5] = compound: CC(C)n1c(=O)n(C)c2cnc3cc(F)c(-c4ccc(OCCCN5CCCCC5)nc4)cc3c21 [AZD1390]; settings: max 0.3 µM
Outline: as §1

[6] = compound: CC1(C)CCC(CN2CCN(c3ccc(C(=O)NS(=O)(=O)c4ccc(NCC5CCOCC5)c([N+](=O)[O-])c4)c(Oc4cnc5[nH]ccc5c4)c3)CC2)=C(c2ccc(Cl)cc2)C1 [Venetoclax]; settings: max 1 µM
Outline: as §1

[7] = compound: CC1=C(C(=CC=C1)Cl)NC(=O)C2=CN=C(S2)NC3=CC(=NC(=N3)C)N4CCN(CC4)CCO [Dasatinib]; settings: max 2 µM
Outline: as §1

[8] = compound: CC1=CN2[C@@H](C1)C=NC3=CC(=C(C=C3C2=O)OC)OCCCCCOC4=C(C=C5C(=C4)N=C[C@@H]6CC(=CN6C5=O)C)OC [SG3199]; settings: max 0.001 µM
Outline: as §1

[9] = compound: CCN(CCO)CCCOc1ccc2c(Nc3cc(CC(=O)Nc4cccc(F)c4)[nH]n3)ncnc2c1 [AZD2811]; settings: max 1 µM
Outline: as §1

[10] = compound: CCc1c2c(nc3ccc(O)cc13)-c1cc3c(c(=O)n1C2)COC(=O)[C@]3(O)CC [SN-38]; settings: max 0.3 µM
Outline: as §1

[11] = compound: CN(C)CCCOc1ccc(-c2ccc3ncc4c(c3c2)n(C2CCOCC2)c(=O)n4C)cn1 [AZD0156]; settings: max 3 µM
Outline: as §1

[12] = compound: CN(CC[C@H](CSC1=CC=CC=C1)NC2=C(C=C(C=C2)S(=O)(=O)NC(=O)C3=CC=C(C=C3)N4CCC(CC4)[C@H](C5=CC=CC=C5C6=CC=C(C=C6)Cl)O)S(=O)(=O)C(F)(F)F)CCO [AZD4320]; settings: max 1 µM
Outline: as §1

[13] = compound: COc1cc(Nc2ncc3c(n2)-c2ccc(Cl)cc2C(c2c(F)cccc2OC)=NC3)ccc1C(=O)O [Alisertib]; settings: max 10 µM
Outline: as §1

[14] = compound: COc1cc2ncnc(Nc3ccc(F)c(Cl)c3)c2cc1OCCCN1CCOCC1 [Gefitinib]; settings: max 10 µM
Outline: as §1

[15] = compound: COc1cccc(OCCCN)c1-c1cc(Nc2cnc(C#N)cn2)n[nH]1 [Prexasertib]; settings: max 1 µM
Outline: as §1

[16] = compound: COc1cccc2c1C(=O)c1c(O)c3c(c(O)c1C2=O)C[C@@](O)(C(=O)CO)C[C@@H]3O[C@H]1C[C@H](N)[C@H](O)[C@H](C)O1 [Doxorubicin]; settings: max 1 µM
Outline: as §1

[17] = compound: COc1nnc2ccc(N3CCC(c4ccc(OCCN5CCN(C)C(=O)[C@H]5C)cc4)CC3)nn12 [AZD5153]; settings: max 1 µM
Outline: as §1

[18] = compound: CS(=O)(=O)CCNCc1ccc(-c2ccc3ncnc(Nc4ccc(OCc5cccc(F)c5)c(Cl)c4)c3c2)o1 [Lapatinib]; settings: max 10 µM
Outline: as §1

[19] = compound: C[C@@H](Nc1cc(F)cc(F)c1)c1cc(C(=O)N(C)C)cc2c(=O)cc(N3CCOCC3)oc12 [AZD8186]; settings: max 3 µM
Outline: as §1

[20] = compound: C[C@@H](Oc1cc(-c2cnn(C3CCNCC3)c2)cnc1N)c1c(Cl)ccc(F)c1Cl [Crizotinib]; settings: max 10 µM
Outline: as §1

[21] = compound: C[C@@H](c1ccc2nccn2c1)n1nnc2ncc(-c3cnn(C)c3)nc21 [Savolitinib]; settings: max 1 µM
Outline: as §1

[22] = compound: C[C@@H]1COCCN1C2=NC(=NC(=C2)C3(CC3)[S@](=N)(=O)C)C4=C5C=CNC5=NC=C4 [AZD6738]; settings: max 10 µM
Outline: as §1

[23] = compound: Cc1c2c(nn1C)CSCc1cc(n(C)n1)CSc1cc(c3ccccc3c1)OCCCc1c(C(=O)O)n(C)c3c-2c(Cl)ccc13 [AZD5991]; settings: max 1 µM
Outline: as §1

[24] = compound: Cc1cc2ncnn2cc1Nc1ncc2c(n1)n(C1CCOCC1)c(=O)n2C [AZD7648]; settings: max 10 µM
Outline: as §1

[25] = compound: Cc1nc(-c2cn3c(n2)-c2ccc(-c4cnn(C(C)(C)C(N)=O)c4)cc2OCC3)n(C(C)C)n1 [Taselisib]; settings: max 10 µM
Outline: as §1

[26] = compound: Cn1cnc2c(F)c(Nc3ccc(Br)cc3Cl)c(C(=O)NOCCO)cc21 [Selumetinib]; settings: max 10 µM
Outline: as §1

[27] = compound: O=C(c1cc(Cc2n[nH]c(=O)c3ccccc23)ccc1F)N1CCN(C(=O)C2CC2)CC1 [Olaparib]; settings: max 10 µM
Outline: as §1

Cell Line | IC50, cell viability 72 h ([1]; max 10 µM) | IC50, cell viability 72 h [2] | IC50, cell viability 72 h [3] | IC50, cell viability 72 h [4] | IC50, cell viability 72 h [5] | IC50, cell viability 72 h [6] | IC50, cell viability 72 h [7] | IC50, cell viability 72 h [8] | IC50, cell viability 72 h [9] | IC50, cell viability 72 h [10] | IC50, cell viability 72 h [11] | IC50, cell viability 72 h [12] | IC50, cell viability 72 h [13] | IC50, cell viability 72 h [14] | IC50, cell viability 72 h [15] | IC50, cell viability 72 h [16] | IC50, cell viability 72 h [17] | IC50, cell viability 72 h [18] | IC50, cell viability 72 h [19] | IC50, cell viability 72 h [20] | IC50, cell viability 72 h [21] | IC50, cell viability 72 h [22] | IC50, cell viability 72 h [23] | IC50, cell viability 72 h [24] | IC50, cell viability 72 h [25] | IC50, cell viability 72 h [26] | IC50, cell viability 72 h [27] | IC50, cell viability 72 h ([1]; max 3 µM)
697 (B-Lymphoblastic Leukemia) | 3.24 µM | 0.149 µM | 0.662 µM | 0.263 µM | > 0.3 µM | 0.0143 µM | 0.677 µM | > 0.001 µM | 0.0146 µM | 0.00334 µM | 2.07 µM | 0.00675 µM | 0.0333 µM | > 10 µM | 0.0045 µM | 0.0173 µM | 0.0142 µM | 6.95 µM | > 3 µM | 1.1 µM | > 1 µM | 0.336 µM | 0.0489 µM | 9.41 µM | 3.94 µM | > 10 µM | 1.41 µM | –
CTV-1 (T-Lymphoblastic Leukemia) | 5.88 µM | 0.28 µM | > 1 µM | 1.47 µM | > 0.3 µM | > 1 µM | < 0.002 µM | > 0.001 µM | > 1 µM | 0.00352 µM | > 3 µM | > 1 µM | 0.199 µM | 4.93 µM | 0.00728 µM | 0.0456 µM | 0.0575 µM | > 10 µM | > 3 µM | 0.371 µM | > 1 µM | 3.92 µM | > 1 µM | > 10 µM | 3.17 µM | > 10 µM | > 10 µM | –
NCI-H2369 (Mesothelioma) | > 10 µM | > 3 µM | > 1 µM | > 10 µM | > 0.3 µM | > 1 µM | > 2 µM | > 0.001 µM | > 1 µM | > 0.3 µM | > 3 µM | > 1 µM | > 10 µM | > 10 µM | > 1 µM | > 1 µM | > 1 µM | > 10 µM | > 3 µM | > 10 µM | > 1 µM | > 10 µM | > 1 µM | > 10 µM | > 10 µM | > 10 µM | > 10 µM | –
NB(TU)1-10 (Neuroblastoma) | – | 0.835 µM | – | – | – | – | – | > 0.001 µM | > 1 µM | 0.017 µM | > 3 µM | – | – | – | 0.00806 µM | 0.468 µM | – | – | – | – | – | 6.88 µM | – | > 10 µM | – | – | > 10 µM | > 3 µM
EM-2 (Chronic Myelogenous Leukemia) | > 10 µM | 0.295 µM | 0.35 µM | > 10 µM | > 0.3 µM | > 1 µM | 0.00228 µM | > 0.001 µM | 0.0219 µM | 0.00512 µM | > 3 µM | 0.0342 µM | 1.06 µM | > 10 µM | 0.00551 µM | 0.104 µM | 0.0616 µM | > 10 µM | > 3 µM | 0.859 µM | > 1 µM | 1.63 µM | > 1 µM | > 10 µM | > 10 µM | 5.55 µM | > 10 µM | –
NCI-H1781 (Lung Adenocarcinoma) | 7.07 µM | 0.839 µM | > 1 µM | > 10 µM | > 0.3 µM | > 1 µM | > 2 µM | > 0.001 µM | 0.583 µM | 0.00506 µM | > 3 µM | > 1 µM | 1.77 µM | 5.37 µM | 0.709 µM | 0.107 µM | > 1 µM | 8.92 µM | > 3 µM | > 10 µM | > 1 µM | > 10 µM | > 1 µM | > 10 µM | 2.11 µM | > 10 µM | > 10 µM | –
HCC2157 (Breast Carcinoma) | 0.307 µM | > 3 µM | > 1 µM | > 10 µM | > 0.3 µM | > 1 µM | > 2 µM | > 0.001 µM | 0.182 µM | 0.0141 µM | > 3 µM | 0.0721 µM | 0.454 µM | 4.41 µM | 0.0225 µM | > 1 µM | 0.0126 µM | 0.0602 µM | 0.667 µM | 4.09 µM | > 1 µM | 2.49 µM | 0.0244 µM | > 10 µM | 0.222 µM | > 10 µM | > 10 µM | –
DMS-273 (Small Cell Lung Carcinoma) | 0.916 µM | 1.17 µM | > 1 µM | > 10 µM | > 0.3 µM | > 1 µM | > 2 µM | > 0.001 µM | 0.114 µM | 0.0189 µM | > 3 µM | > 1 µM | 1.06 µM | > 10 µM | 0.0324 µM | 0.458 µM | 0.117 µM | 7.43 µM | 1.48 µM | 3.93 µM | > 1 µM | 3.45 µM | 0.201 µM | > 10 µM | 5.58 µM | > 10 µM | > 10 µM | –
